# From US7927613B2, “Pharmaceutical co-crystal compositions” (University of South Florida, priority 2002, dated 2011)
# Columns and labels:
# Dissolution profile = assay type: physicochemical; conditions: vs. itraconazole free base (FIG. 28)
# Description: In another aspect of the present invention, the dissolution profile of the API is modulated whereby the aqueous dissolution rate or the dissolution rate in simulated gastric fluid or in simulated intestinal fluid, or in a solvent or plurality of solvents is increased. Dissolution rate is the rate at which API solids dissolve in a dissolution medium. For APIs whose absorption rates are faster than the dissolution rates (e.g., steroids), the rate-limiting step in the absorption process is often the dissolution rate. Because of a limited residence time at the absorption site, APIs that are not dissolved before they are removed from intestinal absorption site are considered useless. Therefore, the rate of dissolution has a major impact on the performance of APIs that are poorly soluble. Because of this factor, the dissolution rate of APIs in solid dosage forms is an important, routine, quality control parameter used in the API manufacturing process. […] For rapid API absorption, Cs−C is approximately equal to Cs The dissolution rate of APIs may be measured by conventional means known in the art. […] Conditions under which the dissolution rate is measured is the same as discussed above The increase in dissolution may be further specified by the time the composition remains supersaturated before reaching equilibrium solubility.
melting point [°C],dissolution profile (Dissolution profile),Compound
173 to 174,,CCOc1ccc(NC(N)=O)cc1 [4-ethoxyphenyl urea]
,modulated dissolution profile,itraconazole and malic acid [itraconazole:malic acid]
